# Source: article PMC11882969 (Nature Communications, 2025)
# Values joined by “and” are separate entries in the source; they are usually repeats but may differ in a detail not shown here. Equal values may be shown once. Read-outs that look alike come from different tables or passages of the source.
# Experiments:
# [1] = test system: mice; experiment: Acetone test, cold allodynia after spared nerve injury; type: in vivo, mouse
# Protocol: Mice were placed on a wire mesh and thirty min after an i.p. injection of the compounds we applied a drop (50 μL) of acetone on the ventral aspect of the hindpaw, 5 times every 30 sec. We recorded the number of nocifensive behaviors (paw lifts/licks/shakes/bites) over the 5 applications.
# [2] = test system: mice; experiment: Catalepsy test, vertical wire mesh; type: in vivo, mouse
# Protocol: Thirty min after an i.p. injection of the compounds, mice were placed on a vertical wire mesh and the latency to move all four paws was recorded.
# [3] = test system: mice
# Protocol: For all behavioral tests, the experimenter was always blind to treatment. Animals were first habituated for 30-60 min in Plexiglas cylinders and then tested 30 min after i.p. or i.t. injection of the compounds. The thermal (Hargreaves, hotplate and tail flick) and ambulatory (rotarod) tests were conducted as described[96]. Briefly, hindpaw thermal sensitivity was measured with a radiant heat source (Hargreaves) or on a hotplate at 52 °C. For the tail flick assay, sensitivity was measured by immersing the tail into a 50 °C water bath. For the ambulatory (rotarod) test, before testing with any compound, mice underwent three trainings on three consecutive days until they reach 300 sec. Each training has three sessions of five min each. Therapeutic window was calculated as the ratio of the minimum dose of side effect phenotype to the minimum dose of analgesic phenotype.
# [4] = test system: mice; experiment: Hargreaves radiant heat test; type: in vivo, mouse
# [5] = Pharmacokinetics: plasma, brain, CSF
# [6] = test system: mice; experiment: Conditioned place preference; type: in vivo, mouse; conditions: for Individual animal scores (FigS11e): test not printed on the sheet; for conditioned place preference: drug-paired vs vehicle-paired chamber
# Protocol: Briefly, mice were first habituated to the test apparatus, twice, and their preference for each chamber recorded for 30 min (Pretest). Two conditioning days followed in which mice received the vehicle control or the compound, and 30 min later restricted for 30 min in the preferred or non-preferred chamber, respectively. On day 5 (Test day), mice were allowed to roam freely between the 3 chambers of the apparatus and their preference for each chamber recorded for 30 min. To calculate the CPP score, we subtracted the time spent in each chamber of the box on the Pretest day from that of the Test day (CPP score = Test - Pretest).
# [7] = test system: mice; experiment: Rotarod test; type: in vivo, mouse
# [8] = test system: mice; experiment: Hot plate, 52 °C; type: in vivo, mouse
# [9] = test system: mice; experiment: Tail flick, 50 °C water bath; type: in vivo, mouse; conditions: for analgesic response normalised to baseline, WT vs CB1R KO (Figure5d), individual animals: 10 mg/kg
# [10] = in vitro; conditions: mouse, plasma
# Protocol: The reactions were stopped by adding 240 μL 90% acetonitrile containing internal standard with subsequent plasma proteins sedimentation by centrifuging at 5796 g for 5 min. Supernatants were analyzed by the HPLC system coupled with a tandem mass spectrometer. The percentage of the test compounds remaining after incubation in plasma and their half-lives (T1/2) were calculated.
# [11] = biological target: T1, human PTH receptor (PTHR) (Homo sapiens, UniProt Q03431); experiment: Gs bioSens-All control assay; type: cell-based; conditions: raw signal, log[PTH]
# T1 construct: expressed in transfected cells; host or cells: HEK293 (HEK293SL) cells, transient co-transfection with the Gαs biosensor
# T1 sequence (Q03431 27-593): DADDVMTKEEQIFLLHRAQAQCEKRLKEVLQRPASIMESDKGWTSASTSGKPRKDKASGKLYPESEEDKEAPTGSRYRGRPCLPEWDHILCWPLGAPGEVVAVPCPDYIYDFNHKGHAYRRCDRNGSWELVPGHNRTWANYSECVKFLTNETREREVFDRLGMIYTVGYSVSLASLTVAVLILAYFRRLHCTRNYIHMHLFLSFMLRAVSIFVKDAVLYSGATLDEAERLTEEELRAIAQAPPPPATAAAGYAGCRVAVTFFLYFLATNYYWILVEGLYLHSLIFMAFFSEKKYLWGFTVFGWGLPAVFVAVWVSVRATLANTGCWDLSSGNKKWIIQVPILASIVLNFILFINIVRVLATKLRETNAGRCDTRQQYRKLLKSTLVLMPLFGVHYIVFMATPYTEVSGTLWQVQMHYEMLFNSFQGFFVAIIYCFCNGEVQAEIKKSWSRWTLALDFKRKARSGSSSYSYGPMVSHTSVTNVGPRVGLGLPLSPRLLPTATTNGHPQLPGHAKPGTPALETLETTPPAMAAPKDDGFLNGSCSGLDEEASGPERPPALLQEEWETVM
# Source text: Experimental data were produced in singleton and curves were fitted using the four-parameter logistic non-linear regression model (GraphPad Prism 9). Data are expressed as uBRET.
# [12] = 0.2 mg/kg, individual animals, FigS11b
compound,measurement,setting,value
"CCCCCCC(C)(C)c1ccc([C@@H]2C[C@H](O)CC[C@H]2CCCO)c(O)c1 [CP-55,940, reference compound]","acetone test response after spared nerve injury (Figure5b), individual animals",[1]; Dose 0.2 mg/kg,36 and 40 and 48 and 76
same,effect on acetone-induced nocifensive behaviors,"[1]; spared nerve injury, i.p.",strongly reduced spared nerve injury-induced cold allodynia
same,"catalepsy (Figure6c), individual animals",[2]; 0.2 mg/kg dose,17 and 15 and 13 and 3 and 5
same,"catalepsy (Figure6c), individual animals",[2]; 0.5 mg/kg dose,6.8 and 5 (2×) and 30 and 5.6 and 4 and 2 (2×) and 7 and 8.5
same,"catalepsy (Figure6c), individual animals",[2]; 1 mg/kg dose,15.3 and 23.3 and 17.7 and 28 and 15.7
same,dose at which catalepsy starts,[2]; i.p.,0.2 mg/kg
same,"therapeutic window, Acetone","[3]; Figure 6e, vs rotarod",1
same,"therapeutic window, Hot Plate","[3]; Figure 6e, vs rotarod",0.4
same,"therapeutic window, Tail Flick","[3]; Figure 6e, vs rotarod",0.4
same,"therapeutic window, analgesia vs catalepsy",[3]; Figure 6f,no window between analgesia and catalepsy
same,"therapeutic window, Acetone","[3]; Figure 6d, vs open field",1
same,"therapeutic window, Hot Plate","[3]; Figure 6d, vs open field",0.4
same,"therapeutic window, Tail Flick","[3]; Figure 6d, vs open field",0.4
same,"lowest dose with significantly increased latency, Hargreaves","[4]; i.p., 30 min after injection",0.2 mg/kg
same,brain Cmax,"[5]; 0.2 mg/kg i.p., CD-1 mice",19.2 ng/g
same,brain T1/2,"[5]; 0.2 mg/kg i.p., CD-1 mice",127 min
same,Individual animal scores (FigS11e),[6]; 0.5 mg/kg,-18 and -21 and -54 and 119 and -213 and 8 and -326 and -238
same,conditioned place preference,[6],may actually induce some aversion
same,"rotarod performance (Figure6b), individual animals",[7]; Dose 0.1 mg/kg,284 and 282 and 285 and 300
same,"rotarod performance (Figure6b), individual animals",[7]; Dose 0.2 mg/kg,261 and 257 and 210 and 300 and 91 and 161 and 258 and 208 and 236 and 275
same,"rotarod performance (Figure6b), individual animals",[7]; Dose 1.0 mg/kg,200 and 204 and 173 and 236 and 203
same,motor impairment at analgesic doses,[7]; rotarod and open field,caused motor impairment in both the rotarod and open field tests
same,Jump,[8]; [12],18 and 0 (2×) and 4 (2×)
same,Paw lick,[8]; [12],0 (4×) and 10
same,Paw shake,[8]; [12],0 (2×) and 6 and 12 and 8
same,Paw withdrawal,[8]; [12],18 and 34 and 32 and 36 and 64
same,"hot plate response normalised to baseline (Figure4b), individual animals",[8]; Dose 0.2 mg/kg,98.1 and 121.1 and 123.4 and 122.6 and 97.5
same,"hot plate response normalised to baseline (Figure4b), individual animals",[8]; Dose 0.5 mg/kg,256.6 and 226.6 and 210.5 and 222.4 and 213.7
same,lowest dose with significantly increased hot plate latency,"[8]; i.p., 30 min after injection",0.5 mg/kg
"CN1CC[C@]23c4c5ccc(O)c4O[C@H]2[C@@H](O)C=C[C@H]3[C@H]1C5 [morphine, reference compound]","analgesic response normalised to baseline, WT vs CB1R KO (Figure5d), individual animals",[9]; CB1R KO mice,186.205 and 193.839 and 225.055 and 193.021 and 200.382
same,Response relative to baseline (baseline about 100),"[9]; Morphine 3 mg/kg, individual animals, sheet Figure7b, test not given",153.4 and 95 and 153.1 and 101.6 and 124.1 and 132.6 and 140.4 and 96.4 and 125 and 194 and 137 and 131 and 126 and 149.7 and 136.2
same,"analgesic response normalised to baseline, WT vs CB1R KO (Figure5d), individual animals",[9]; WT mice,138.803 and 169.174 and 209.668 and 177.834 and 174.541
same,Individual animal scores (FigS11e),[6]; 20 mg/kg,125 and 92 and 189 and -5 and 874 and 419 and 158 and 182
same,conditioned place preference,[6],significantly increased their preference
CCCCCCC(C)(C)c1ccc([C@@H]2C[C@H](O)CC[C@H]2CCCO)c(O)c1 [CP55940],"Brain, Mean",[5]; Time 1 min,0
same,"CSF, Mean",[5]; Time 1 min,0
same,"Plasma, Mean",[5]; Time 1 min,0
same,"Brain, Mean",[5]; Time 5 min,0
same,"CSF, Mean",[5]; Time 5 min,0
same,"Plasma, Mean",[5]; Time 5 min,21.5
same,"Brain, Mean",[5]; Time 15 min,11.5
same,"CSF, Mean",[5]; Time 15 min,0
same,"Plasma, Mean",[5]; Time 15 min,47.5
same,"Brain, Mean",[5]; Time 30 min,19.2
same,"CSF, Mean",[5]; Time 30 min,0
same,"Plasma, Mean",[5]; Time 30 min,48.4
same,"Brain, Mean",[5]; Time 60 min,17.1
same,"CSF, Mean",[5]; Time 60 min,0
same,"Plasma, Mean",[5]; Time 60 min,26.7
same,"Brain, Mean",[5]; Time 120 min,11.9
same,"CSF, Mean",[5]; Time 120 min,0
same,"Plasma, Mean",[5]; Time 120 min,10.6
same,"Brain, Mean",[5]; Time 240 min,3.09
same,"CSF, Mean",[5]; Time 240 min,0
same,"Plasma, Mean",[5]; Time 240 min,2.6
same,"Brain, Mean",[5]; Time 360 min,0
same,"CSF, Mean",[5]; Time 360 min,0
same,"Plasma, Mean",[5]; Time 360 min,0
same,"Brain, Mean",[5]; Time 480 min,0
same,"CSF, Mean",[5]; Time 480 min,0
same,"Plasma, Mean",[5]; Time 480 min,0
same,"Brain, Mean",[5]; Time […],0
same,"CSF, Mean",[5]; Time […],0
same,"Plasma, Mean",[5]; Time […],0
"CC(C)[N+](C)(CCOC(=O)C1c2ccccc2Oc2ccccc21)C(C)C [Propantheline, reference compound]",half-life at 1 µM,[10],28 min
same,"remaining at 20 min, 1 µM",[10],75%
same,"remaining at 40 min, 1 µM",[10],50%
same,"remaining at 1 h, 1 µM",[10],31%
same,"remaining at 2 h, 1 µM",[10],6%
PTH,PTH control response,[11]; M -6.22186,5622
same,PTH control response,[11]; M -6.53946,5653
same,PTH control response,[11]; M -6.85696,5394
same,PTH control response,[11]; M -7.17551,5221
same,PTH control response,[11]; M -7.49499,5149
same,PTH control response,[11]; M -7.80694,5011
same,PTH control response,[11]; M -8.11922,4856
same,PTH control response,[11]; M -8.44613,4893
same,PTH control response,[11]; M -8.76448,5167
same,PTH control response,[11]; M -9.07573,5440
same,PTH control response,[11]; M -9.22186,6053
same,PTH control response,[11]; M -9.39794,5806
same,PTH control response,[11]; M -9.68787,6475
same,PTH control response,[11]; M -10.1552,7581
same,PTH control response,[11]; M -10.6199,8362
same,PTH control response,[11]; M -11.0969,9720
same,PTH control response,[11]; M -11.5529,9963
same,PTH control response,[11]; M -12.0177,10394
same,PTH control response,[11]; M -12.4948,10587
same,PTH control response,[11]; M -12.9208,10667
same,PTH control response,[11]; M -13.3979,10336
same,PTH control response,[11]; M -13.8861,10932
same,PTH control response,[11]; M -14,11358 and 10843
CCCCCCC(C)(C)c1ccc([C@@H]2C[C@H](O)CC[C@H]2CCCO)c(O)c1 [CP-55940],"Dose response, individual animals (FigS11a)","[4]; Dose 0.2 mg/kg, test not printed on the sheet",256.9 and 109.7 and 71.66 and 121.4 and 287.7
"O=C(CCCN1CCC(O)(c2ccc(Cl)cc2)CC1)c1ccc(F)cc1 [haloperidol, reference compound]","catalepsy (Figure6c), individual animals",[2]; 1 mg/kg dose,21 and 17 and 11.5 and 18 and 14
same,"catalepsy, latency to move all four paws","[2]; i.p., ‘1350 at 0.2 or 0.5 mg/kg, haloperidol 1.0 mg/kg",induced catalepsy
